Laboratory results: patent US9012608B2 (priority 2007, dated 2015)

Key:
[1] = mouse, in vivo
[2] = system: B. anthracis Sterne strain spores; parameters: species or system Bacillus anthracis; conditions: in vivo

For `O=C(O)c1cn(C2CC2)c2cc(N3CCNCC3)c(F)cc2c1=O` [ciprofloxacin], the “tolerance to selected dose” value [1] was “favorably tested”.
In the case of `C[C@H]1c2cccc(O)c2C(=O)C2=C(O)[C@]3(O)C(=O)C(C(N)=O)=C(O)[C@@H](N(C)C)[C@@H]3[C@@H](O)[C@@H]21` [doxycycline], the tolerance [1] is reported as “not well tolerated”.
For `CN(C)[C@@H]1C(O)=C(C(N)=O)C(=O)[C@@]2(O)C(O)=C3C(=O)c4c(O)cccc4[C@@](C)(O)[C@H]3C[C@@H]12` [tetracycline], the survival [2] was 60%.
